Reference: PMC7862291, “Full-length in meso structure and mechanism of rat kynurenine 3-monooxygenase inhibition” (Communications Biology, 2021)

Columns and labels:
[1] = target: T1, hKMO (Homo sapiens, UniProt O15229); experiment: Human KMO enzyme (cell-free) assay, NADPH consumption by absorbance; format: biochemical
T1 construct: purchased Origene
Method: (§1) Human KMO was purchased from Origene and used to assay compounds. Full-length Rat-KMO purified for crystallisation was used to assay compounds. Full-length Rat-KMO-expressing membranes were used for mutant assays (Fig. 4b) only. […] Images were taken using Odyssey CLX (LI-COR Biosciences) and quantified using ImageStudio2.0 (LI-COR Biosciences) software.
(§2) Test compounds were dissolved in DMSO and diluted with assay buffer containing 50 mM HEPES, 2 mM MgCl2, 0.5 mM EGTA, 1 mM DTT, 0.05% Tween20 and 0.005% of antiform SI (pH = about 7.9) to prepare a 4% DMSO solution. […] After 5 min of pre-incubation, reactions were started by adding 10 μL of substrate solution containing 2.4 mM kynurenine and 0.6 mM NADPH. Reactions were run for 90 min at 30 °C, then terminated by adding 5 μL of stop buffer (40 mM maleimide, 2 mM WST-9 and 0.1 mM 1-methoky PMS in water). […] Liposomal assays were performed in the same manner except that the composition of the assay buffer was changed (phosphate-buffered saline, 2 mM MgCl2, 1 mM DTT, 0.05% Tween 20).
(§3) Compound assays were analysed and plotted on graphs using Prism (GraphPad Software Inc. San Diego, CA, USA).

[2] = target: T2, Rat KMO (Rattus norvegicus, UniProt O88867); experiment: Rat KMO enzyme (cell-free) assay, NADPH consumption by absorbance; format: biochemical
T2 construct: The GST-tagged full-length KMO (1-478) baculovirus vector contained a thrombin cleavage site; GST (thrombin cleavage site between GST and KMO) (N, cleaved yes); made in house; host or cells: Spodoptera frugiperda (Sf9), baculovirus
T2 sequence (O88867 whole entry): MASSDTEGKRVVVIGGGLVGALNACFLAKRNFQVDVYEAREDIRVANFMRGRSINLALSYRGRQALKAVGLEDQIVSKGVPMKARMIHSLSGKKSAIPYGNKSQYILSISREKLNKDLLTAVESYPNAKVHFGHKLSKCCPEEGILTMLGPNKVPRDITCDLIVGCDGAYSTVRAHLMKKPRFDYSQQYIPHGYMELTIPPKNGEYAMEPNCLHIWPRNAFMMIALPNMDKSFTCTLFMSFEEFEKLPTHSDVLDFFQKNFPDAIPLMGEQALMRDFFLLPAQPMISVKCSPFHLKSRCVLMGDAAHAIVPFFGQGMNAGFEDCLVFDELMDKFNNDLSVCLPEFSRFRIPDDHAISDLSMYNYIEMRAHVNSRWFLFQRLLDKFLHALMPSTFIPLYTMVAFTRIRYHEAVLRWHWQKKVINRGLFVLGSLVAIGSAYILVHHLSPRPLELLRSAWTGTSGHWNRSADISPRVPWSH
Method: as §1, §2, §3

[3] = target: T3, HEK293 cells stably expressing human KMO (Homo sapiens, UniProt O15229); experiment: Cell-based human KMO inhibition assay (LC/MS of 3-hydroxykynurenine)
T3 construct: expressed in transfected cells
T3 sequence (O15229 whole entry): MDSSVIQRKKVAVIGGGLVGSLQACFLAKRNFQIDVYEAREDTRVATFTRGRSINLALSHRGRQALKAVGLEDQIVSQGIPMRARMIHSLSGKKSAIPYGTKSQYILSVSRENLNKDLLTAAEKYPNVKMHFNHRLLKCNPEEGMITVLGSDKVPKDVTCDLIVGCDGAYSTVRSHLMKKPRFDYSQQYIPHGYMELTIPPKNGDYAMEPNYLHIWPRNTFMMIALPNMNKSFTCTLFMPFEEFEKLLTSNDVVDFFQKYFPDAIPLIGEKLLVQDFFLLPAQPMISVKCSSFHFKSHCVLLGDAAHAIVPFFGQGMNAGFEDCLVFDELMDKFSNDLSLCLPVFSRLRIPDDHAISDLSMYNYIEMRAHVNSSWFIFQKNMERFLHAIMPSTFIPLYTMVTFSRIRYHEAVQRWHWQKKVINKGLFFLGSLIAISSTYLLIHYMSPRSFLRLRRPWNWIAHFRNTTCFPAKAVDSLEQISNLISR
Method: (§4) HEK293 cells stably expressing human or rat KMO were maintained in DMEM containing 10% fetal bovine serum, 50 units/mL penicillin, 50 μg/mL streptomycin and 0.2 mg⁄mL zeocine. […] After 2 overnights, the medium was replaced with 10 μL/well of assay buffer (1 × HBSS containing 20 mM HEPES). Ten microliters per well of the diluted test compounds (final, 0–30 μM, 0.3% DMSO) were added to the respective wells. After ~30 min of pre-incubation at 37 °C, reactions were started by adding 20 μL of substrate solution containing 0.2 mM kynurenine. Reactions were run for 2 h at 37 °C, the assay buffer was discarded and the plate was immediately frozen and stored at −30 °C until LC/MS analysis.
(§5) An 80 µL volume of cold acetonitrile with 2% formic acid was added to the cell pellet in a 384-well plate and centrifuged at 3000 rpm for 10 min at 4 °C. A 40 µL volume of the supernatant was transferred to a new 384-well plate and evaporated to dryness under nitrogen gas at 45 °C. The residue was reconstituted in 100 µL of acetonitrile/water (10:90, v/v) with 0.1% formic acid, and 1 µL was injected into the LC-MS/MS system.
(§6) LC/MS/MS was performed on a Shimadzu UFLC Nexera X2 (Shimadzu Corporation, Japan) and an QTRAP® 5500 LC-MS/MS System (SCIEX, Framingham, USA). Chromatographic separation was performed using an Allure PFP Propyl analytical column (5 µm, 2.1 × 100 mm) maintained at 50 °C. The autosampler temperature was set at 15 °C. The mobile phase consisted of formic acid/water/acetonitrile/methanol (0.5/500/250/250, v/v/v/v) and the flow rate was set at 0.3 mL/min. 3-hydroxykynurenine was eluted from the LC column at a retention time of 1.2 min. The MS system was operated using electrospray ionization (ESI) in positive mode. The optimum conditions were curtain gas, 20 psi; ion spray voltage, 5500 V; heated nebulizer temperature (TEM), 700 °C; nebulizing gas (GS1), 70 psi; and heater gas (GS2), 70 psi. […] Analyst® software (SCIEX, Framingham, USA) was used for system control and MultiQuant™ Software (SCIEX, Framingham, USA) was used for data analysis.
as §3

[4] = target: T4, HEK293 cells stably expressing rat KMO (Rattus norvegicus, UniProt O88867); experiment: Cell-based rat KMO inhibition assay (LC/MS of 3-hydroxykynurenine)
T4 construct: expressed in transfected cells
T4 sequence (O88867 whole entry): as the sequence (O88867 whole entry) above
Method: as §4, §5, §6, §3

T1 sequence (O15229 whole entry): as the sequence (O15229 whole entry) above

## Cc1cnn(-c2ccc(OCc3ccccc3)c(C(=O)O)c2)c1-c1ccc(Cl)c(F)c1 [Compound 3]
[1]; cell-free enzyme assay, high kynurenine, read-out: Human KMO IC50
  IC50: 3.8 nM
[1]; conc 0.0003 μM, duplicates
  inhibition rate, Hs-KMO cell-free assay (Figure 1A source data): 2.492%
[1]; conc 0.0003 μM, duplicates, read-out: inhibition rate, Hs-KMO cell-free assay (Figure 1A source data)
  inhibition at 0.0003 µM: 4.34%
[1]; conc 0.001 μM, duplicates
  inhibition rate, Hs-KMO cell-free assay (Figure 1A source data): 10.698%
[1]; conc 0.001 μM, duplicates, read-out: inhibition rate, Hs-KMO cell-free assay (Figure 1A source data)
  inhibition at 0.001 µM: 11%
[1]; conc 0.003 μM, duplicates
  inhibition rate, Hs-KMO cell-free assay (Figure 1A source data): 34.671%
[1]; conc 0.003 μM, duplicates, read-out: inhibition rate, Hs-KMO cell-free assay (Figure 1A source data)
  inhibition at 0.003 µM: 36%
[1]; conc 0.01 μM, duplicates
  inhibition rate, Hs-KMO cell-free assay (Figure 1A source data): 91.745%
[1]; conc 0.01 μM, duplicates, read-out: inhibition rate, Hs-KMO cell-free assay (Figure 1A source data)
  inhibition at 0.01 µM: 91.2%
[1]; conc 0.03 μM, duplicates
  inhibition rate, Hs-KMO cell-free assay (Figure 1A source data): 101.827%
[1]; conc 0.03 μM, duplicates, read-out: inhibition rate, Hs-KMO cell-free assay (Figure 1A source data)
  inhibition at 0.03 µM: 102%
[1]; conc 0.1 μM, duplicates
  inhibition rate, Hs-KMO cell-free assay (Figure 1A source data): 97.991%
[1]; conc 0.1 μM, duplicates, read-out: inhibition rate, Hs-KMO cell-free assay (Figure 1A source data)
  inhibition at 0.1 µM: 98.8%
[1]; conc 0.3 μM, duplicates
  inhibition rate, Hs-KMO cell-free assay (Figure 1A source data): 101.967%
[1]; conc 0.3 μM, duplicates, read-out: inhibition rate, Hs-KMO cell-free assay (Figure 1A source data)
  inhibition at 0.3 µM: 103%
[1]; conc 1 μM, duplicates
  inhibition rate, Hs-KMO cell-free assay (Figure 1A source data): 95.974%
[1]; conc 1 μM, duplicates, read-out: inhibition rate, Hs-KMO cell-free assay (Figure 1A source data)
  inhibition at 1 µM: 103%
[2]; cell-free enzyme assay, high kynurenine
  IC50: 9 nM
[2]; conc 0.0003 μM, duplicates
  inhibition rate, Rat-KMO cell-free assay (Figure 1B source data): 0.623%
[2]; conc 0.0003 μM, duplicates, read-out: inhibition rate, Rat-KMO cell-free assay (Figure 1B source data)
  inhibition at 0.0003 µM: 0.676%
[2]; conc 0.001 μM, duplicates
  inhibition rate, Rat-KMO cell-free assay (Figure 1B source data): 5.077%
[2]; conc 0.001 μM, duplicates, read-out: inhibition rate, Rat-KMO cell-free assay (Figure 1B source data)
  inhibition at 0.001 µM: 6.43%
[2]; conc 0.003 μM, duplicates
  inhibition rate, Rat-KMO cell-free assay (Figure 1B source data): 23.289%
[2]; conc 0.003 μM, duplicates, read-out: inhibition rate, Rat-KMO cell-free assay (Figure 1B source data)
  inhibition at 0.003 µM: 23.8%
[2]; conc 0.01 μM, duplicates
  inhibition rate, Rat-KMO cell-free assay (Figure 1B source data): 55.764%
[2]; conc 0.01 μM, duplicates, read-out: inhibition rate, Rat-KMO cell-free assay (Figure 1B source data)
  inhibition at 0.01 µM: 56.6%
[2]; conc 0.03 μM, duplicates
  inhibition rate, Rat-KMO cell-free assay (Figure 1B source data): 81.294%
[2]; conc 0.03 μM, duplicates, read-out: inhibition rate, Rat-KMO cell-free assay (Figure 1B source data)
  inhibition at 0.03 µM: 81.3%
[2]; conc 0.1 μM, duplicates
  inhibition rate, Rat-KMO cell-free assay (Figure 1B source data): 84.395%
[2]; conc 0.1 μM, duplicates, read-out: inhibition rate, Rat-KMO cell-free assay (Figure 1B source data)
  inhibition at 0.1 µM: 83.1%
[2]; conc 0.3 μM, duplicates
  inhibition rate, Rat-KMO cell-free assay (Figure 1B source data): 91.102%
[2]; conc 0.3 μM, duplicates, read-out: inhibition rate, Rat-KMO cell-free assay (Figure 1B source data)
  inhibition at 0.3 µM: 92.2%
[2]; conc 1 μM, duplicates
  inhibition rate, Rat-KMO cell-free assay (Figure 1B source data): 84.342%
[2]; conc 1 μM, duplicates, read-out: inhibition rate, Rat-KMO cell-free assay (Figure 1B source data)
  inhibition at 1 µM: 88.8%
[3]; HEK293, conc 0.0003 μM, duplicates, read-out: inhibition rate, Hs-KMO cellular assay (Figure 1C source data)
  inhibition at 0.0003 µM: 6.79%
[3]; HEK293, conc 0.001 μM, duplicates, read-out: inhibition rate, Hs-KMO cellular assay (Figure 1C source data)
  inhibition at 0.001 µM: 11%
[3]; HEK293, conc 0.003 μM, duplicates, read-out: inhibition rate, Hs-KMO cellular assay (Figure 1C source data)
  inhibition at 0.003 µM: 12.3%
[3]; HEK293, conc 0.01 μM, duplicates, read-out: inhibition rate, Hs-KMO cellular assay (Figure 1C source data)
  inhibition at 0.01 µM: 32.5%
[3]; HEK293, conc 0.03 μM, duplicates, read-out: inhibition rate, Hs-KMO cellular assay (Figure 1C source data)
  inhibition at 0.03 µM: 100%
[3]; HEK293, conc 0.1 μM, duplicates, read-out: inhibition rate, Hs-KMO cellular assay (Figure 1C source data)
  inhibition at 0.1 µM: 104%
[3]; HEK293, conc 0.3 μM, duplicates, read-out: inhibition rate, Hs-KMO cellular assay (Figure 1C source data)
  inhibition at 0.3 µM: 105%
[3]; HEK293 cells expressing human KMO, LC/MS, read-out: Human cell-based assay IC50
  IC50: 12 nM
[3]; conc 0.0003 μM, duplicates
  inhibition rate, Hs-KMO cellular assay (Figure 1C source data): 4.270%
[3]; conc 0.001 μM, duplicates
  inhibition rate, Hs-KMO cellular assay (Figure 1C source data): 10.835%
[3]; conc 0.003 μM, duplicates
  inhibition rate, Hs-KMO cellular assay (Figure 1C source data): 13.039%
[3]; conc 0.01 μM, duplicates
  inhibition rate, Hs-KMO cellular assay (Figure 1C source data): 26.636%
[3]; conc 0.03 μM, duplicates
  inhibition rate, Hs-KMO cellular assay (Figure 1C source data): 98.487%
[3]; conc 0.1 μM, duplicates
  inhibition rate, Hs-KMO cellular assay (Figure 1C source data): 104.397%
[4]; HEK293, conc 0.3 μM, duplicates, read-out: inhibition rate, Rat-KMO cellular assay (Figure 1D source data)
  inhibition at 0.3 µM: 62%
[4]; HEK293, conc 1 μM, duplicates, read-out: inhibition rate, Rat-KMO cellular assay (Figure 1D source data)
  inhibition at 1 µM: 91.7%
[4]; HEK293, conc 3 μM, duplicates, read-out: inhibition rate, Rat-KMO cellular assay (Figure 1D source data)
  inhibition at 3 µM: 97.7%
[4]; HEK293, conc 10 μM, duplicates, read-out: inhibition rate, Rat-KMO cellular assay (Figure 1D source data)
  inhibition at 10 µM: 100%
[4]; HEK293, conc 30 μM, duplicates, read-out: inhibition rate, Rat-KMO cellular assay (Figure 1D source data)
  inhibition at 30 µM: 100%
[4]; HEK293 cells expressing rat KMO, LC/MS
  IC50: 240 nM
[4]; conc 0.3 μM, duplicates
  inhibition rate, Rat-KMO cellular assay (Figure 1D source data): 48.933%
[4]; conc 1 μM, duplicates
  inhibition rate, Rat-KMO cellular assay (Figure 1D source data): 83.933%
[4]; conc 3 μM, duplicates
  inhibition rate, Rat-KMO cellular assay (Figure 1D source data): 95.840%
[4]; conc 10 μM, duplicates
  inhibition rate, Rat-KMO cellular assay (Figure 1D source data): 99.692%
[4]; conc 30 μM, duplicates
  inhibition rate, Rat-KMO cellular assay (Figure 1D source data): 100.882%
